Test results reported in patent US20240124439A1, “Pyrido[2,3-D]Imidazole Derivatives and Their Use As Inhibitors of ITK for the Treatment of Skin Disease” (Pfizer Inc., priority 2020, published 2024).

What was measured:
[1] = biological target: IL-2-Inducible T-Cell Kinase (ITK) (Homo sapiens (Human), UniProt Q08881); test: ITK enzyme assay (IL-2-inducible T-cell kinase activity); assay type: biochemical; conditions: geometric mean of count n
Description: ITK activity was determined by measuring the effect of a test compound in an ITK enzyme assay.
1.0 M HEPES Buffer pH 7.5 solution was prepared as follows: 238.3 g HEPES free acid (Sigma) and 800 mL of water were combined, and the mixture was stirred until complete dissolution. The pH was adjusted to 7.5 via titration with 5N NaOH and the volume adjusted to 1000 mL. The solution was filtered and sterilized.
ITK assay buffer was prepared as follows: 50 mL of HPLC-grade water was treated with 2 mL of 1.0 M HEPES Buffer, 500 μL of 2% Gelatin (Sigma), 1.0 mL of aqueous MgCl2 solution (1.0 M), and 1.0 mL of aqueous glutathione solution (0.5 M), and the solution was mixed. The solution was brought to 99 mL in a graduated cylinder by addition of water and sterilized through a 0.2 μm filter. 0.1 mL of Brij-35™ Surfact-Amps™ Detergent Solution (10% w/v aqueous solution, ThermoFisher) and 1.0 mL of ATP (Teknova,100 mM) were added and the solution was mixed.
Preparation of 1.33× ITK enzyme solution was as follows: 49.99 mL of ITK assay buffer was treated with 4.1 μL of ITK enzyme (ITK FL (N-Flag and C-His tagged, […]) Lake Pharma, 0.25 mg/ml in a buffer containing 25 mM Tris pH 7.8, 150 mM NaCl, 10% glycerol and 2 mM TCEP) and the mixture was gently agitated. The resulting solution was stored on ice. 30 Minutes prior to use, the enzyme solution was removed from ice and equilibrated to RT by incubation in a RT water bath.
Preparation of 4× ITK substrate solution was as follows: 50 mL of ITK assay buffer was treated with 100 μL of BTK peptide (China Peptide Company, 2 mM stock solution in DMSO). The tube was capped, mixed by gently inverting the tube, and then stored on ice. 30 Minutes prior to use, the substrate solution was removed from ice and equilibrated to RT by incubation in a RT water bath.
At the time of assay, 7.5 μL of the 1.33× ITK enzyme solution was added to plate wells containing 0.1 μL of varying concentrations of test compound in DMSO. The plate was incubated 30 min at RT. The plate wells were each treated with 2.5 uL of the 4× ITK substrate solution and the plate was sealed (TopSeal™, Perkin Elmer). The plate was spun at 1000 rpm for 30 sec and then incubated for 60 min at RT. The seal was removed, and each well was treated with 10 μL of Stop/Detect Buffer (20 mM HEPES pH 7.5, 0.01% gelatin, 1 nM LANCE PT66 (Perkin Elmer), 16.5 μg/ml Surelight APC (Perkin Elmer), 10 mM EDTA, 250 mM NaCl). The plate was again covered and was spun at 1000 rpm for […]. The plate was allowed to incubate overnight at RT and in a closed carrier to reduce dehydration. The seal was removed, and the fluorescence was read with a plate reader with an excitation wavelength of […]. The concentrations and resulting effect values for the tested compound were plotted and the concentration of compound required for 50% effect (IC50) was determined with the four-parameter logistic dose response equation.

[2] = test system: activated CD4+ human T-cells (IL-2); test: IL-2 inhibition in supernatants from activated CD4+ human T-cells (cisbio HTRF); assay type: cell-based; conditions: T-cell; CD3/CD28-activated CD4+ human T cells, ImmunoCult stimulation 20 to 24 hrs; geometric mean of count n
Description: IL-2 inhibition activity in supernatants from activated CD4+ human T-cells was determined by measuring the effect of a test compound on the activity using the cisbio HTRF™ technology.
Human CD4+ T cells were activated with CD3/CD28 for 3 days and expanded for an additional 4-6 days (7 to 9 days total). On day 0, frozen CD4+ T cells were thawed, treated with CD3/CD28 Dynabeads, and incubated at 37° C./5% CO2. On day 3, the beads were removed, and the cells were diluted to 5×10^5 cells/cm^2, placed in G-Rex10 flask, and incubated at 37° C./5% CO2. On day 7 to day 9 the cells were removed from the G-Rex flasks, counted and diluted back to 1×10^6 cells/ml in standard tissue culture flask.
The expanded CD4+ T-cells were centrifuged at 300×g for 10 minutes and resuspended to 0.5 million cells per ml (30,000 cells/well). 60 μl of CD4+ T cells were added per well to a 384 well plate containing 0.1 μL of varying concentrations of test compound in DMSO. The plates were incubated for 15 min at 37° C./5% CO2. 20 μl of diluted ImmunoCult™ (STEMCELL Technologies, 1:12.5 in T cell assay media) were added to all wells of the plate (1:50 final assay concentration). The plates were incubated for an additional 20 to 24 hrs at 37° C./5% CO2. The plates were centrifuged at 300×g for 10 minutes. 16 μL of supernatant was removed and combined with 4 μl of IL-2 HTRF Abs. (cisbio kit). Plates were incubated for 3 hours at RT and read with an EnVision plate reader at 665 nm and 615 nm wavelengths. The concentrations and resulting effect values for the tested compound were plotted and the concentration of compound required for 50% effect (IC50) was determined with the four-parameter logistic dose response equation.

Sequence of IL-2-Inducible T-Cell Kinase (ITK) (Q08881 whole entry): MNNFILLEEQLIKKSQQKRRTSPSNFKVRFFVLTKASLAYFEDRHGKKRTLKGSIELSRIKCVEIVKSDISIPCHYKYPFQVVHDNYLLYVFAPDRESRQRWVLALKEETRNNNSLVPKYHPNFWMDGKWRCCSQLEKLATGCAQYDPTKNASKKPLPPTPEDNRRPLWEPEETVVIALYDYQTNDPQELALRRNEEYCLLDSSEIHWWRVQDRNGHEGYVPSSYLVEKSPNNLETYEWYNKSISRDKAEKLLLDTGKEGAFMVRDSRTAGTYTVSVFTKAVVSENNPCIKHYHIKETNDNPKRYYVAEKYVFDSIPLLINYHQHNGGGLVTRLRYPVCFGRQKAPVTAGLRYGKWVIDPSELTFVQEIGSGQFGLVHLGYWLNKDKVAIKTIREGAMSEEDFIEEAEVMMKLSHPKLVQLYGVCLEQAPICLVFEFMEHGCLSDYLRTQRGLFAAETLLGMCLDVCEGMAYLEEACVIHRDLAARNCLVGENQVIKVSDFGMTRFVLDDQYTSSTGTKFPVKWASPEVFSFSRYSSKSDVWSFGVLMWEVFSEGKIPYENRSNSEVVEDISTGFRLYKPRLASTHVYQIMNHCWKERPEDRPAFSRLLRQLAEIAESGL

| Structure (SMILES) | IC50 [1] [nM] | IC50 [2] [nM] |
| --- | --- | --- |
| C[C@@H](C(=O)N(C)c1cnc2[nH]c(-c3n[nH]c4c3C[C@@H]3C[C@]3(C)C4)nc2c1)N1CC2CC(C1)O2 (single isomer, unassigned) [Example 41] | 116 | 600 |
| C[C@H](C(=O)N(C)c1cnc2[nH]c(-c3n[nH]c4c3C[C@@H]3C[C@]3(C)C4)nc2c1)N1CC2CC(C1)O2 (single isomer, unassigned) [Example 42] | 21 | 143 |
| CC(C)[C@@H](C(=O)N(C)c1cnc2[nH]c(-c3n[nH]c4c3CC3C[C@]3(C)C4)nc2c1)N1CCOCC1 (stereo in doubt) [Example 3, (S)-N,3-Dimethyl-N-(2-((4aR,5aR)-5a-methyl-1,4,4a,5,5a,6-hexahydrocyclopropa[f]indazol-3-yl)-3H-imidazo[4,5-b]pyridin-6-yl)-2-morpholinobutanamide] | 38 | 320 |
| CC[C@@H](C(=O)N(C)c1cnc2[nH]c(-c3n[nH]c4c3C[C@@H]3C[C@]3(C)C4)nc2c1)N1CCOCC1 [Example 4, (S)-N-Methyl-N-(2-((4aS,5aR)-5a-methyl-1,4,4a,5,5a,6-hexahydrocyclopropa[f]indazol-3-yl)-3H-imidazo[4,5-b]pyridin-6-yl)-2-morpholinobutanamide] | 38 | 205 |
| CN(C(=O)C(F)(F)C1CCOCC1)c1cnc2nc(-c3n[nH]c4c3CCC(C)(C)C4)[nH]c2c1 [Example 5, N-(2-(6,6-Dimethyl-4,5,6,7-tetrahydro-1H-indazol-3-yl)-1H-imidazo[4,5-b]pyridin-6-yl)-2,2-difluoro-N-methyl-2-(tetrahydro-2H-pyran-4-yl)acetamide] | 14 | 375 |
| CN(C(=O)Cn1cccn1)c1cnc2nc(-c3n[nH]c4c3C[C@@H]3C[C@]3(C)C4)[nH]c2c1 [Example 6, N-Methyl-N-(2-((4aS,5aR)-5a-methyl-1,4,4a,5,5a,6-hexahydrocyclopropa[f]indazol-3-yl)-1H-imidazo[4,5-b]pyridin-6-yl)-2-(1H-pyrazol-1-yl)acetamide] | 26 | 343 |
| C[C@@H](C(=O)N(C)c1cnc2nc(-c3n[nH]c4c3C[C@@H]3C[C@]3(C)C4)[nH]c2c1)n1cccn1 [Example 7, (S)-N-Methyl-N-(2-((4aS,5aR)-5a-methyl-1,4,4a,5,5a,6-hexahydrocyclopropa[f]indazol-3-yl)-1H-imidazo[4,5-b]pyridin-6-yl)-2-(1H-pyrazol-1-yl)propenamide] | 70 | 398 |
| CC(C)(C(=O)Nc1cnc2[nH]c(-c3n[nH]c4c3C[C@@H]3C[C@]3(C)C4)nc2c1)N1CCOCC1 [Example 16, 2-Methyl-N-(2-((4aS,5aR)-5a-methyl-1,4,4a,5,5a,6-hexahydrocyclopropa[f]indazol-3-yl)-3H-imidazo[4,5-b]pyridin-6-yl)-2-morpholinopropanamide] | – | 2110 |
| CC(C(=O)N(C)c1cnc2[nH]c(-c3n[nH]c4c3C[C@@H]3C[C@]3(C)C4)nc2c1)N1CCOCC1 (stereo partly drawn) [Example 27, N-Methyl-N-(2-((4aS,5aR)-5a-methyl-1,4,4a,5,5a,6-hexahydrocyclopropa[f]indazol-3-yl)-3H-imidazo[4,5-b]pyridin-6-yl)-2-morpholinopropanamide] | 62 | – |
| C[C@@H](C(=O)Nc1ccc2[nH]c(-c3n[nH]c4c3CCC(C)(C)C4)nc2c1)N1CCOCC1 [Example 33, (S)-N-(2-(6,6-Dimethyl-4,5,6,7-tetrahydro-1H-indazol-3-yl)-1H-benzo[d]imidazol-5-yl)-2-morpholinopropanamide] | – | 315 |
| CCc1nc2[nH]c(-c3n[nH]c4c3C[C@@H]3C[C@]3(C)C4)nc2cc1N(C)C(=O)CN1CCOCC1 [Example 37, N-(5-Ethyl-2-((4aS,5aR)-5a-methyl-1,4,4a,5,5a,6-hexahydrocyclopropa[f]indazol-3-yl)-3H-imidazo[4,5-b]pyridin-6-yl)-N-methyl-2-morpholinoacetamide] | – | 815 |
| CN(C(=O)CC1CC(F)(F)C1)c1cnc2nc(-c3n[nH]c4c3C[C@@H]3C[C@]3(C)C4)[nH]c2c1 [Example 48, 2-(3,3-Difluorocyclobutyl)-N-methyl-N-(2-((4aS,5aR)-5a-methyl-1,4,4a,5,5a,6-hexahydrocyclopropa[f]indazol-3-yl)-1H-imidazo[4,5-b]pyridin-6-yl)acetamide] | – | 326 |
| CN(C(=O)CC1CC2(CCC2)C1)c1cnc2nc(-c3n[nH]c4c3C[C@@H]3C[C@]3(C)C4)[nH]c2c1 [Example 49, N-Methyl-N-(2-((4aS,5aR)-5a-methyl-1,4,4a,5,5a,6-hexahydrocyclopropa[f]indazol-3-yl)-1H-imidazo[4,5-b]pyridin-6-yl)-2-(spiro[3.3]heptan-2-yl)acetamide] | – | 157 |
| CN(C(=O)CC1CC2(C1)CC2(F)F)c1cnc2nc(-c3n[nH]c4c3C[C@@H]3C[C@]3(C)C4)[nH]c2c1 (stereo partly drawn) [Example 50, 2-(1,1-Difluorospiro[2.3]hexan-5-yl)-N-methyl-N-(2-((4aS,5aR)-5a-methyl-1,4,4a,5,5a,6-hexahydrocyclopropa[f]indazol-3-yl)-1H-imidazo[4,5-b]pyridin-6-yl)acetamide] | – | 171 |
| CN(C(=O)CC1CC2(C1)CC(F)(F)C2)c1cnc2nc(-c3n[nH]c4c3C[C@@H]3C[C@]3(C)C4)[nH]c2c1 [Example 54, 2-(6,6-Difluorospiro[3.3]heptan-2-yl)-N-methyl-N-(2-((4aS,5aR)-5a-methyl-1,4,4a,5,5a,6-hexahydrocyclopropa[f]indazol-3-yl)-1H-imidazo[4,5-b]pyridin-6-yl)acetamide] | – | 131 |
| CN(C(=O)C(C)(C)C1CCOCC1)c1cnc2[nH]c(-c3n[nH]c4c3CCC(C)(C)C4)nc2c1 [Example 93, N-(2-(6,6-Dimethyl-4,5,6,7-tetrahydro-1H-indazol-3-yl)-3H-imidazo[4,5-b]pyridin-6-yl)-N,2-dimethyl-2-(tetrahydro-2H-pyran-4-yl)propanamide] | 333 | – |
| CN(C(=O)C1CC(C)(C)C1)c1cnc2[nH]c(-c3n[nH]c4c3CCC(C)(C)C4)nc2c1 [Example 96, N-(2-(6,6-Dimethyl-4,5,6,7-tetrahydro-1H-indazol-3-yl)-3H-imidazo[4,5-b]pyridin-6-yl)-N,3,3-trimethylcyclobutane-1-carboxamide] | 311 | – |
| CN(C(=O)C12CC(C1)C2)c1cnc2[nH]c(-c3n[nH]c4c3CCC(C)(C)C4)nc2c1 [Example 111, N-(2-(6,6-Dimethyl-4,5,6,7-tetrahydro-1H-indazol-3-yl)-3H-imidazo[4,5-b]pyridin-6-yl)-N-methylbicyclo[1.1.1]pentane-1-carboxamide] | 416 | – |
